Tests used:
mouse model of CPP = experiment: Mouse model of CPP; format: in vivo
SW mice = experiment: Cocaine-conditioned locomotion, expression test; format: in vivo, mouse; settings: Paired mice, cocaine 15 mg/kg 24 h earlier; 10 mg/kg prior to testing
Protocol: The goal of this pilot study was to determine if the novel small molecule was effective in preventing cocaine-conditioned motor activity of SW mice. […] Cocaine results in enhanced locomotor activity in mice. Mice that were previously injected with 15 mg/kg cocaine, either in their home cages (Unpaired) or in the novel test environment (Paired), were tested 24 h later.

[1] = Neuroprotection MTT assay in SHSY5Y cells; format: cell-based, human; settings: insult agent alone, HT22 or SHSY5Y cells, not told apart, read-out: cell proliferation (viable cells, MTT); for viability: 24 h
Excerpt: MTT assay was used for measuring viable cells at absorbance of 490 nm. […] (FIGS. 5C-5D).

IL-1β cytokine = IL-1β cytokine ELISA of SHSY-5Y supernatants; format: cell-based, human; settings: cocaine 1.5 mM or METH 3.5 mM alone; 24 h
Protocol: Supernatants were collected and the IL-1β cytokine concentration was assessed using ELISA kit and following manufacturer instruction (RayBiotech). […] N=3, p<0.05; p<0.01, One-way ANOVA, GraphPad Prism.

catalase (CAT) = experiment: Catalase ELISA in SH-SY5Y cells; format: cell-based, human; settings: cocaine 1.5 mM alone; 24 hours
Protocol: Cell lysates were collected and quantified with Pierce™ BCA Protein Assay. Level of intracellular SOD, catalase, glutathione peroxidase and total antioxidant concentration were assessed using ELISA kits.

methionine synthase (MS) = experiment: Intracellular methionine synthase ELISA of SH-SY5Y cell lysate; format: cell-based, human; settings: cocaine 1.5 mM alone; 24 hours; FIG. 6B
Protocol: Cell lysates were collected and quantified with Pierce™ BCA Protein Assay. Level of intracellular methionine synthase (MS) were assessed using ELISA of the cell lysate.

Q: Which results are given for `CNC(=S)NC` [DMTU, dimethyl thiourea]?
A: bioactivity in the mouse model of CPP (mouse model of CPP; 5 mg/kg): potent bioactivity; bioactivity in the mouse model of CPP (mouse model of CPP; 10 mg/kg): potent bioactivity; expression of increased (cocaine-conditioned) locomotor activity (SW mice): effective

Q: For `CN[C@@H](C)Cc1ccccc1` [METH, methamphetamine], which viability [1] is on record?
A: ~50%

Q: What about the IL-1β (IL-1β cytokine) of the same compound?
A: trend in increase

Q: With `CC(C)(C)OO` [TBHP, t-butyl hydrogen peroxide] as the compound, how does the viability at 24 h [1] read?
A: ~50%

Q: With `COC(=O)[C@H]1[C@@H](OC(=O)c2ccccc2)C[C@@H]2CC[C@H]1N2C` [cocaine] as the compound, how does the viability [1] read?
A: ~50%

Q: And the CAT activity (catalase (CAT))?
A: no significant effect

Q: What about the “effect on MS” value (methionine synthase (MS)) of the same compound?
A: no significant effect

— patent US20260226036A1, “THIOUREA ANTIO[…] NEURO[…]” (priority 2023, published 2026)
